# Reference: ChEMBL document CHEMBL1136837, “Unified QSAR approach to antimicrobials. 4. Multi-target QSAR modeling and comparative multi-distance study of the giant components of antiviral drug-drug complex networks” (Bioorg Med Chem, 2009)
# System: Human immunodeficiency virus 1
# Test: Antiviral activity against HIV1
# Format: functional, organism-based
row,SMILES,IC50
1,Cc1cc(OCCCS(N)(=O)=O)ccc1NC(=O)COc1ccc(Cl)cc1C(=O)c1cc(F)cc(C(F)(F)F)c1,0.0024 µM
2,CCOC(=O)c1cc2ccccc2n1S(=O)(=O)c1ccccc1,200 µM
3,CC(=O)c1c(Cl)n([C@H]2C[C@H](O)[C@@H](CO)O2)c2cc(Cl)c(Cl)cc12,8 µM
4,N#Cc1c(Cl)n([C@H]2C[C@H](O)[C@@H](CO)O2)c2cc(Cl)c(Cl)cc12,35 µM
5,CC(C)C[C@H](NC(=O)[C@H](Cc1ccccc1)C[C@H](O)[C@@H](CC(=O)OC(C)(C)C)Cc1ccccc1)C(=O)N[C@@H](Cc1ccccc1)C(N)=O,0.6 µM
6,O=C(c1cccc(Cc2ccccc2)c1)c1ncc2cccnc2c1O,0.04 µM
7,Nc1ncnc2c1ncn2C1C=CC(OCP(=O)(O)OP(=O)(O)C(F)(F)P(=O)(O)OP(=O)(O)COC2C=CC(n3cnc4c(N)ncnc43)C2)C1 (configuration not stated),20 µM
8,Nc1ccn([C@@H]2CC(F)(F)[C@H](CO)O2)c(=O)n1,11.5 µM
9,CCn1c(C(=O)CC(=O)C(=O)OC)cc2ccccc21,60 µM
10,CO/N=C(\c1ccc(Br)cc1)C1CCN(C2(C)CCN(C(=O)c3c(C)cccc3O)CC2)CC1,0.004 µM
11,CC(C)Nc1cccnc1N1CCN(C(=O)c2cc3cc(NS(C)(=O)=O)ccc3[nH]2)CC1 [DELAVIRDINE],5.4 µM
12,CC(=O)OCc1cc2c(C)cc(=O)oc2c2c1OC(C)(C)[C@H](OC(=O)[C@@]13CC[C@](C)(C(=O)O1)C3(C)C)[C@@H]2OC(=O)[C@@]12CC[C@](C)(C(=O)O1)C2(C)C,14.1 µM
13,NC(=O)c1cn(S(=O)(=O)c2ccccc2)c2cc(Cl)ccc12,200 µM
14,CC(=O)Nc1ccc(C(OCCn2c([N+](=O)[O-])cnc2C)c2ccccc2)cc1 (configuration not stated),200 µM
15,O=C1CSC(c2c(F)cccc2F)N1c1cccc(Br)n1 (configuration not stated),0.03 µM
16,C=C(C)[C@@H]1CC[C@]2(C(=O)NCCCCCCCC(=O)N[C@@H](CC(C)C)[C@H](O)CC(=O)OCc3ccccc3)CC[C@]3(C)[C@H](CC[C@@H]4[C@@]5(C)CC[C@H](OC(C)=O)C(C)(C)[C@@H]5CC[C@]43C)[C@@H]12,28 µM
17,OC[C@@H]1O[C@@H](n2cnc3c(O)ncnc32)CC1(F)F,100 µM
18,[N-]=[N+]=NC[C@H]1O[C@@H](n2c(Cl)c(C=O)c3cc(Cl)c(Cl)cc32)[C@H](O)[C@@H]1O,10 µM
19,Nc1nc(F)nc2c1ncn2[C@H]1S[C@@H](CO)C=C1F,11.5 µM
20,O=c1nc(O)ccn1[C@@H]1CC(F)(F)[C@H](CO)O1,100 µM
21,Nc1nc(O)c2ncn([C@@H]3O[C@H](CO)C=C3F)c2n1,2.6 µM
22,Cc1cc(Br)c(Nc2ccnc(Nc3ccc(C#N)cc3)n2)c(Br)c1,0.00063 µM
23,Cc1ncc([N+](=O)[O-])n1CCOC(c1ccccc1)c1ccc([N+](=O)[O-])cc1 (configuration not stated),5 µM

row,SMILES,IC50
1,Nc1nc2c(ncn2C2C=CC(OCP(=O)(O)OP(=O)(O)C(Br)(Br)P(=O)(O)O)C2)c(=O)[nH]1 (configuration not stated),200 µM
2,O=c1nc(O)ccn1[C@@H]1C=C(F)[C@H](CO)O1,100 µM
3,Cc1ncc([N+](=O)[O-])n1CCOC(c1ccccc1)c1cc(Cl)cc(Cl)c1 (configuration not stated),45 µM
4,Nc1nc(NC2CC2)c2ncn([C@H]3C=C[C@@H](CO)O3)c2n1,8.6 µM
5,Nc1nc2c(ncn2[C@@H]2S[C@H](CO)C=C2F)c(=O)[nH]1,80.5 µM
6,CC(=O)OCc1c(C)c2ccc3c(c2oc1=O)[C@@H](OC(=O)[C@@]12CC[C@](C)(C(=O)O1)C2(C)C)[C@@H](OC(=O)[C@@]12CC[C@](C)(C(=O)O1)C2(C)C)C(C)(C)O3,14.8 µM
7,Nc1nc2c(ncn2C2C=CC(OCP(=O)(O)OP(=O)(O)C(F)(F)P(=O)(O)OP(=O)(O)COC3C=CC(n4cnc5c(N)ncnc54)C3)C2)c(=O)[nH]1 (configuration not stated),15 µM
8,O=C(O)/C(O)=C/C(=O)c1cccc(OCc2ccccc2)c1,0.35 µM
9,O=c1nc(O)ccn1[C@H]1CC(F)(F)[C@H](CO)O1,100 µM
10,Nc1ncnc2c1ncn2C1C=CC(OCP(=O)(O)OP(=O)(O)OP(=O)(O)OP(=O)(O)COC2C=CC(n3cnc4c(N)ncnc43)C2)C1 (configuration not stated),2 µM
11,Cc1ccc(S(=O)(=O)c2c(C(N)=O)[nH]c3ccc(Cl)cc23)cc1,0.003 µM
12,Cc1cc(C)nc(N2C(=O)CSC2c2c(F)cccc2Cl)c1 (configuration not stated),0.042 µM
13,Nc1nc2c(ncn2C2C=CC(OCP(=O)(O)OP(=O)(O)OP(=O)(O)O)C2)c(=O)[nH]1 (configuration not stated),0.3 µM
14,O=C(O)/C(O)=C/C(=O)c1ccnc2ccccc12,100 µM
15,NC(=O)c1[nH]c2ccc(Cl)cc2c1S(=O)(=O)c1ccccc1 [L-737126],2 µM
16,Cc1cc(/C=C/C#N)cc(C)c1Nc1ccnc(Nc2ccc(C#N)cc2)n1 [RILPIVIRINE],0.0004 µM
17,Cc1ccc(S(=O)(=O)c2c(C(N)=O)[nH]c3ccc(Cl)cc23)c(C)c1,0.004 µM
18,O=C(O)/C(O)=C/C(=O)c1cccc(C(=O)/C=C(\O)C(=O)O)c1,1.83 µM
19,COc1ccnc2[nH]cc(C(=O)C(=O)N3CCN(C(=O)c4ccccc4)C[C@H]3C)c12,0.00085 µM
20,CC(C)(C)c1ccc(S(=O)(=O)c2c(C(N)=O)[nH]c3ccc(Cl)cc23)cc1,0.13 µM
21,Cc1cn([C@H]2S[C@@H](CO)C=C2F)c(=O)[nH]c1=O,100 µM
22,Nc1nc(O)c2ncn([C@@H]3CC(F)(F)[C@H](CO)O3)c2n1,100 µM
23,CCCCOC(=O)c1cc2c([nH]c3ccccc32)c(-c2ccc3c(n2)C(=O)C(NC(=O)CCC)=CC3=O)n1 [LAV12],5.8 µM

row,SMILES,IC50
1,C=C(C)[C@@H]1CC[C@]2(C(=O)N[C@@H](CC(C)C)C(=O)OC)CC[C@]3(C)[C@H](CC[C@@H]4[C@@]5(C)CC[C@H](OC(C)=O)C(C)(C)[C@@H]5CC[C@]43C)[C@@H]12,40 µM
2,O=C(O)c1ccc2ccc(/C=C/c3cccnc3)nc2c1O,100 µM
3,Fc1cccc(F)c1Cn1c(-c2c(F)cccc2F)nc2ccccc21,1.7 µM
4,Nc1nc(Cl)c2ncn([C@@H]3O[C@H](CO)C=C3F)c2n1,4.3 µM
5,Nc1ncnc2c1ncn2C1C=CC(OCP(=O)(O)OP(=O)(O)C(Br)(Br)P(=O)(O)O)C1 (configuration not stated),1000 µM
6,C=C(C)[C@@H]1CC[C@]2(C(=O)NCCCCCCCCCCC(=O)N[C@@H](CC(C)C)C(=O)O)CC[C@]3(C)[C@H](CC[C@@H]4[C@@]5(C)CC[C@H](O)C(C)(C)[C@@H]5CC[C@]43C)[C@@H]12,0.46 µM
7,COC(=O)C(=O)CC(=O)c1cn(C)c2cc3c(cc12)OCO3,31 µM
8,Cc1cn([C@@H]2O[C@H](CO)C=C2F)c(=O)nc1N,100 µM
9,CCOC(=O)c1cc2ccc(Cl)cc2n1S(=O)(=O)c1ccc(Cl)cc1,200 µM
10,Cc1c(CBr)c(=O)oc2c3c(ccc12)OC(C)(C)[C@H](OC(=O)[C@@]12CC[C@](C)(C(=O)O1)C2(C)C)[C@@H]3OC(=O)[C@@]12CC[C@](C)(C(=O)O1)C2(C)C,20.9 µM
11,NC(=O)c1cccc2c1nc(-c1c(F)cccc1F)n2Cc1c(F)cccc1F,0.37 µM
12,Nc1ccn([C@@H]2C=C(F)[C@H](CO)O2)c(=O)n1,0.089 µM
13,Cc1ccnc(N2C(=O)CSC2c2c(F)cccc2Cl)c1 (configuration not stated),0.099 µM
14,O=C1CSC(c2c(F)cccc2Cl)N1c1cccc(Br)n1 (configuration not stated),0.064 µM
15,C=C(C)[C@@H]1CC[C@]2(C(=O)N[C@@H](CC(C)C)C(=O)O)CC[C@]3(C)[C@H](CC[C@@H]4[C@@]5(C)CC[C@H](O)C(C)(C)[C@@H]5CC[C@]43C)[C@@H]12,3.22 µM
16,Fc1cccc(F)c1Cn1c(-c2ccccc2)nc2ccccc21,0.06 µM
17,Cc1ncc([N+](=O)[O-])n1CCOC(c1ccccc1)c1ccccc1[N+](=O)[O-] (configuration not stated),0.6 µM
18,Cc1cc(C)nc(N2C(=O)CSC2c2c(Cl)cccc2Cl)c1 (configuration not stated),0.09 µM
19,NC(=O)c1cn(S(=O)(=O)c2ccccc2)c2ccccc12,32 µM
20,COC(=O)c1[nH]c(-c2ccc3c(n2)C(=O)C(NC(C)=O)=CC3=O)c2nc3ccccc3c-2c1C,15.1 µM
21,NC(=O)c1[nH]c2ccc(Cl)cc2c1Sc1ccc(Cl)cc1,3.1 µM
22,CCOC(=O)Cc1c(N)nc(N)nc1OCCOCP(=O)(O)O,0.0003 µM
23,Cc1ncc([N+](=O)[O-])n1CCOC(c1ccccc1)c1ccc(Cl)c(Cl)c1 (configuration not stated),97 µM

row,SMILES,IC50
1,NC(=O)c1[nH]c2ccccc2c1Sc1cc(Cl)ccc1N,9 µM
2,Cc1cccc(C)c1C(=O)N1CCC(C)(N2CCC(Cc3ccc(Cl)cc3)CC2)CC1,0.023 µM
3,O=c1cc(Cc2c(F)cccc2F)nc(NC2CCCC2)[nH]1,0.07 µM
4,O=C(OC(C(=O)O)C(OC(=O)c1cccs1)C(=O)O)c1cccs1 (configuration not stated),10 µM
5,CC(C)OC(=O)c1cn(S(=O)(=O)c2ccccc2)c2ccccc12,5 µM
6,Cc1ccnc2c1NC(=O)c1cccnc1N2C1CC1 [NEVIRAPINE],0.06 µM
7,O=C(OC(C(=O)O)C(OC(=O)c1ccsc1)C(=O)O)c1ccsc1 (configuration not stated),10 µM
8,Cc1cc(C)nc(N2C(=O)CSC2c2c(F)cccc2F)c1 (configuration not stated),0.059 µM
9,Nc1nc(=O)n([C@H]2O[C@H](CO)C=C2F)cc1F,100 µM
10,Cc1c(C(C)c2c(F)cccc2F)nc(SC2CCCC2)[nH]c1=O (configuration not stated),0.005 µM
11,Cc1cc(=O)oc2c3c(c(CBr)cc12)OC(C)(C)[C@H](OC(=O)[C@@]12CC[C@](C)(C(=O)O1)C2(C)C)[C@@H]3OC(=O)[C@@]12CC[C@](C)(C(=O)O1)C2(C)C,13.7 µM
12,CC(=O)Oc1ccc(/C=C/C(=O)O[C@H](C(=O)O)[C@H](OC(=O)/C=C/c2ccc(OC(C)=O)c(OC(C)=O)c2)C(=O)O)cc1OC(C)=O,15.7 µM
13,O=C1CSC(c2c(F)cccc2F)N1c1ccc(Cl)cn1 (configuration not stated),7.19 µM
14,O=C(/C=C(\O)c1nnn[nH]1)c1c[nH]c2ccccc12,1.9 µM
15,NC(=O)c1cc2ccccc2n1S(=O)(=O)c1ccccc1,15 µM
16,O=C(/C=C/c1ccc(O)c(O)c1)NCC(OC(=O)/C=C/c1ccc(O)c(O)c1)C(=O)O (racemic),0.19 µM
17,Cc1cn([C@H]2C=C[C@@](C#N)(CO)O2)c(=O)[nH]c1=O,7 µM
18,Nc1ccn([C@H]2CC(F)(F)[C@H](CO)O2)c(=O)n1,100 µM
19,CCO/N=C(\c1ccc(Br)cc1)C1CCN(C2(C)CCN(C(=O)c3cccnc3C)CC2)CC1,0.0014 µM
20,Cn1cc(C(=O)/C=C(/O)C(=O)O)c2ccccc21,37 µM
21,Nc1ncnc2c1ncn2[C@H]1CC(F)(F)[C@H](CO)O1,100 µM
22,COc1ccc(Cn2nnnc2/C(O)=C/C(=O)c2c[nH]c3ccccc23)cc1,100 µM
23,CC1(C)Oc2ccc3cc(CBr)c(=O)oc3c2[C@@H](OC(=O)[C@@]23CC[C@](C)(C(=O)O2)C3(C)C)[C@H]1OC(=O)[C@@]12CC[C@](C)(C(=O)O1)C2(C)C,11.1 µM
